Results taken from publication PMC11981944 (Nature, 2025).

B1: Fab-B (Fab, V domains shown)
VH: EVQLQQSGPELVKPGASMKISCKTSGYSFTGYTMNWVKQSHGKNLEWIGLINPYNGDTSYNQKFKGKATLTVDKSSSTAYMELLSLTSEDSAVYYCEVINTYWGQGTLVTVSA
VL: DIVMTQSPASLAVSLGQRATISCKASQSIDYDGDNYMNWYQQKPGQPPKLLIYTTSNLESGIPARFSGSGSGTDFTLNIHPVEEGDAATYYCQQNNEDPYTFGGGTKLEIK

Legend:
[1] = tested on: SARS-CoV-2 rWuhan M(P132S); type: cell-based
[2] = target: SARS-CoV-2 M protein (membrane protein), purified recombinant (SARS-CoV-2, UniProt P0DTC5); assay: cryo-EM structure

| Molecule | susceptibility of M(P132S) virus (in words) [1] | binding result [2] |
| --- | --- | --- |
| CC(C)(C)[C@H](NC(=O)C(F)(F)F)C(=O)N1C[C@H]2[C@@H]([C@H]1C(=O)N[C@H](C#N)C[C@@H]1CCNC1=O)C2(C)C [Nirmatrelvir] | remained fully susceptible | – |
| N#C[C@@]1(c2ccc3c(N)ncnn23)O[C@H](CO)[C@@H](O)[C@H]1O [GS-441524] | remained fully susceptible | – |
| B1 | – | binds |
